Measurements taken from ChEMBL document CHEMBL2440076, “New triarylpyrazoles as broad-spectrum anticancer agents: design, synthesis, and biological evaluation” (Eur J Med Chem, 2013).

Assays:
Type in all cases: functional
[1] = system: LOX IMVI; assay: Growth inhibition of human LOXIMVI cells assessed as cell growth at 5X10'-6 M after 48 hrs by sulforhodamine B assay; settings: read-out: Activity
[2] = Growth inhibition of human Hs 578T cells assessed as cell growth at 5X10'-6 M after 48 hrs by sulforhodamine B assay; settings: read-out: Activity
[3] = system: U-251; assay: Growth inhibition of human U251 cells assessed as cell growth at 5X10'-8 M after 48 hrs by sulforhodamine B assay; settings: U-251, 48 h, read-out: Activity
[4] = system: M14; assay: Growth inhibition of human M14 cells assessed as cell growth at 5X10'-9 M after 48 hrs by sulforhodamine B assay; settings: M14, 48 h, read-out: Activity
[5] = system: 786-0; assay: Growth inhibition of human 786-0 cells assessed as cell growth at 5X10'-8 M after 48 hrs by sulforhodamine B assay; settings: 786-0, 48 h, read-out: Activity
[6] = system: HOP-92; assay: Growth inhibition of human HOP92 cells assessed as cell growth at 5X10'-6 M after 48 hrs by sulforhodamine B assay; settings: HOP-92, 48 h, read-out: Activity
[7] = system: HCT-15; assay: Growth inhibition of human HCT15 cells assessed as cell growth at 5X10'-6 M after 48 hrs by sulforhodamine B assay; settings: HCT-15, 48 h, read-out: Activity
[8] = system: MDA-MB-231; assay: Growth inhibition of human MDA-MB-231 cells assessed as cell growth at 5X10'-9 M after 48 hrs by sulforhodamine B assay; settings: MDA-MB-231, 48 h, read-out: Activity
[9] = system: HT-29; assay: Growth inhibition of human HT-29 cells assessed as cell growth at 5X10'-6 M after 48 hrs by sulforhodamine B assay; settings: HT-29, 48 h, read-out: Activity
[10] = system: NCI-H522; assay: Growth inhibition of human NCI-H522 cells assessed as cell growth at 5X10'-7 M after 48 hrs by sulforhodamine B assay; settings: NCI-H522, 48 h, read-out: Activity
[11] = system: DU-145; assay: Growth inhibition of human DU145 cells assessed as cell growth at 5X10'-8 M after 48 hrs by sulforhodamine B assay; settings: DU-145, 48 h, read-out: Activity
[12] = system: HT-29; assay: Growth inhibition of human HT-29 cells assessed as cell growth at 5X10'-8 M after 48 hrs by sulforhodamine B assay; settings: HT-29, 48 h, read-out: Activity
[13] = system: SK-MEL-5; assay: Growth inhibition of human SK-MEL-5 cells assessed as cell growth at 5X10'-9 M after 48 hrs by sulforhodamine B assay; settings: SK-MEL-5, 48 h, read-out: Activity
[14] = system: SF-539; assay: Growth inhibition of human SF539 cells assessed as cell growth at 5X10'-7 M after 48 hrs by sulforhodamine B assay; settings: SF-539, 48 h, read-out: Activity
[15] = system: SK-MEL-5; assay: Growth inhibition of human SK-MEL-5 cells assessed as cell growth at 5X10'-6 M after 48 hrs by sulforhodamine B assay; settings: SK-MEL-5, 48 h, read-out: Activity
[16] = system: UO-31; assay: Growth inhibition of human UO31 cells assessed as cell growth at 5X10'-8 M after 48 hrs by sulforhodamine B assay; settings: UO-31, 48 h, read-out: Activity
[17] = system: ACHN; assay: Growth inhibition of human ACHN cells assessed as cell growth at 5X10'-7 M after 48 hrs by sulforhodamine B assay; settings: read-out: Activity
[18] = system: MOLT-4; assay: Growth inhibition of human MOLT4 cells assessed as cell growth at 5X10'-8 M after 48 hrs by sulforhodamine B assay; settings: MOLT-4, 48 h, read-out: Activity
[19] = system: OVCAR-8; assay: Growth inhibition of human OVCAR8 cells assessed as cell growth at 5X10'-8 M after 48 hrs by sulforhodamine B assay; settings: OVCAR-8, 48 h, read-out: Activity
[20] = system: OVCAR-3; assay: Growth inhibition of human OVCAR3 cells assessed as cell growth at 5X10'-6 M after 48 hrs by sulforhodamine B assay; settings: OVCAR-3, 48 h, read-out: Activity
[21] = system: OVCAR-4; assay: Growth inhibition of human OVCAR4 cells assessed as cell growth at 5X10'-8 M after 48 hrs by sulforhodamine B assay; settings: OVCAR-4, 48 h, read-out: Activity
[22] = system: NCI-H522; assay: Growth inhibition of human NCI-H522 cells assessed as cell growth at 5X10'-8 M after 48 hrs by sulforhodamine B assay; settings: NCI-H522, 48 h, read-out: Activity
[23] = system: HOP-92; assay: Growth inhibition of human HOP92 cells assessed as cell growth at 5X10'-9 M after 48 hrs by sulforhodamine B assay; settings: HOP-92, 48 h, read-out: Activity
[24] = system: MOLT-4; assay: Growth inhibition of human MOLT4 cells assessed as cell growth at 5X10'-7 M after 48 hrs by sulforhodamine B assay; settings: MOLT-4, 48 h, read-out: Activity
[25] = system: U-251; assay: Growth inhibition of human U251 cells assessed as cell growth at 5X10'-9 M after 48 hrs by sulforhodamine B assay; settings: U-251, 48 h, read-out: Activity
[26] = system: TK-10; assay: Growth inhibition of human TK10 cells assessed as cell growth at 5X10'-5 M after 48 hrs by sulforhodamine B assay; settings: TK-10, 48 h, read-out: Activity
[27] = system: SK-OV-3; assay: Growth inhibition of human SKOV3 cells assessed as cell growth at 5X10'-7 M after 48 hrs by sulforhodamine B assay; settings: SK-OV-3, 48 h, read-out: Activity
[28] = system: PC-3; assay: Growth inhibition of human PC3 cells assessed as cell growth at 5X10'-9 M after 48 hrs by sulforhodamine B assay; settings: PC-3, 48 h, read-out: Activity
[29] = system: A498; assay: Growth inhibition of human A498 cells assessed as cell growth at 5X10'-7 M after 48 hrs by sulforhodamine B assay; settings: A498, 48 h, read-out: Activity
[30] = system: HOP-62; assay: Growth inhibition of human HOP62 cells assessed as cell growth at 5X10'-6 M after 48 hrs by sulforhodamine B assay; settings: HOP-62, 48 h, read-out: Activity
[31] = system: 786-0; assay: Growth inhibition of human 786-0 cells assessed as cell growth at 5X10'-6 M after 48 hrs by sulforhodamine B assay; settings: 786-0, 48 h, read-out: Activity
[32] = system: NCI-H522; assay: Growth inhibition of human NCI-H522 cells assessed as cell growth at 5X10'-9 M after 48 hrs by sulforhodamine B assay; settings: NCI-H522, 48 h, read-out: Activity
[33] = system: OVCAR-3; assay: Growth inhibition of human OVCAR3 cells assessed as cell growth at 5X10'-5 M after 48 hrs by sulforhodamine B assay; settings: OVCAR-3, 48 h, read-out: Activity
[34] = system: NCI-H23; assay: Growth inhibition of human NCI-H23 cells assessed as cell growth at 5X10'-8 M after 48 hrs by sulforhodamine B assay; settings: NCI-H23, 48 h, read-out: Activity
[35] = system: NCI-H460; assay: Growth inhibition of human NCI-H460 cells assessed as cell growth at 5X10'-5 M after 48 hrs by sulforhodamine B assay; settings: NCI-H460, 48 h, read-out: Activity
[36] = system: ACHN; assay: Growth inhibition of human ACHN cells assessed as cell growth at 5X10'-8 M after 48 hrs by sulforhodamine B assay; settings: read-out: Activity
[37] = Growth inhibition of human Hs 578T cells assessed as cell growth at 5X10'-9 M after 48 hrs by sulforhodamine B assay; settings: read-out: Activity

Compound | growth at 5 µM [1] | growth at 5 µM [2] | growth at 0.05 µM [3] | growth at 0.005 µM [4] | growth at 0.05 µM [5] | growth at 5 µM [6] | growth at 5 µM [7] | growth at 0.005 µM [8] | growth at 5 µM [9] | growth at 0.5 µM [10] | growth at 0.05 µM [11] | growth at 0.05 µM [12] | growth at 0.005 µM [13] | growth at 0.5 µM [14] | growth at 5 µM [15] | growth at 0.05 µM [16] | growth at 0.5 µM [17] | growth at 0.05 µM [18] | growth at 0.05 µM [19] | growth at 5 µM [20] | also measured
COc1cc(-c2nn(-c3cccc(NC(=O)Nc4ccc(Cl)c(Cl)c4)c3)cc2-c2ccncc2)ccc1Cl | -32% | 11% | 93% | 100% | 102% | -40% | 10% | 92% | 2% | 68% | 110% | 102% | 98% | 78% | -86% | 88% | 70% | 113% | 96% | -34% | growth at 0.05 µM [21]: 94%; growth at 0.05 µM [22]: 101%; growth at 0.005 µM [23]: 75%; growth at 0.5 µM [24]: 78%; growth at 0.005 µM [25]: 96%; growth at 50 µM [26]: -1%; growth at 0.5 µM [27]: 105%; growth at 0.005 µM [28]: 99%; growth at 0.5 µM [29]: 80%; growth at 5 µM [30]: -1%; growth at 5 µM [31]: -5%; growth at 0.005 µM [32]: 101%; growth at 50 µM [33]: -50%; growth at 0.05 µM [34]: 101%; growth at 50 µM [35]: 2%; growth at 0.05 µM [36]: 98%; growth at 0.005 µM [37]: 99%
COc1cc(-c2nn(-c3cccc(NC(=O)c4cccc(C(F)(F)F)c4)c3)cc2-c2ccncc2)ccc1Cl | 8% | 2% | 94% | 95% | 98% | -14% | 15% | 102% | 5% | 79% | 95% | 96% | 98% | 81% | -38% | 75% | 81% | 98% | 99% | -28% | growth at 0.05 µM [21]: 98%; growth at 0.05 µM [22]: 92%; growth at 0.005 µM [23]: 90%; growth at 0.5 µM [24]: 91%; growth at 0.005 µM [25]: 94%; growth at 50 µM [26]: 18%; growth at 0.5 µM [27]: 101%; growth at 0.005 µM [28]: 98%; growth at 0.5 µM [29]: 61%; growth at 5 µM [30]: 47%; growth at 5 µM [31]: 27%; growth at 0.005 µM [32]: 95%; growth at 50 µM [33]: -38%; growth at 0.05 µM [34]: 90%; growth at 50 µM [35]: -10%; growth at 0.05 µM [36]: 103%; growth at 0.005 µM [37]: 91%
O=C(Nc1cccc(-n2cc(-c3ccncc3)c(-c3ccc(Cl)c(O)c3)n2)c1)c1ccc(N2CCOCC2)c(C(F)(F)F)c1 | 10% | 25% | 101% | 96% | 95% | -7% | 18% | 96% | 79% | 92% | 97% | 101% | 101% | 73% | 31% | 88% | 85% | 94% | 106% | 49% | growth at 0.05 µM [21]: 100%; growth at 0.05 µM [22]: 94%; growth at 0.005 µM [23]: 85%; growth at 0.5 µM [24]: 87%; growth at 0.005 µM [25]: 101%; growth at 50 µM [26]: 24%; growth at 0.5 µM [27]: 106%; growth at 0.005 µM [28]: 100%; growth at 0.5 µM [29]: 89%; growth at 5 µM [30]: 67%; growth at 5 µM [31]: 35%; growth at 0.005 µM [32]: 93%; growth at 50 µM [33]: 11%; growth at 0.05 µM [34]: 93%; growth at 50 µM [35]: -10%; growth at 0.05 µM [36]: 99%; growth at 0.005 µM [37]: 92%
O=C(Nc1cccc(-n2cc(-c3ccncc3)c(-c3ccc(Cl)c(O)c3)n2)c1)Nc1cc(C(F)(F)F)cc(C(F)(F)F)c1 | -94% | -8% | 93% | 104% | 99% | -38% | -9% | 94% | -54% | 65% | 109% | 107% | 104% | 82% | -94% | 89% | 55% | 109% | 93% | -70% | growth at 0.05 µM [21]: 95%; growth at 0.05 µM [22]: 102%; growth at 0.005 µM [23]: 83%; growth at 0.5 µM [24]: 81%; growth at 0.005 µM [25]: 95%; growth at 50 µM [26]: -95%; growth at 0.5 µM [27]: 98%; growth at 0.005 µM [28]: 90%; growth at 0.5 µM [29]: 64%; growth at 5 µM [30]: -64%; growth at 5 µM [31]: -23%; growth at 0.005 µM [32]: 101%; growth at 50 µM [33]: -94%; growth at 0.05 µM [34]: 99%; growth at 50 µM [35]: -78%; growth at 0.05 µM [36]: 96%; growth at 0.005 µM [37]: 97%
COc1cc(-c2nn(-c3cccc(NC(=O)Nc4cccc(C(F)(F)F)c4)c3)cc2-c2ccncc2)ccc1Cl | -75% | 4% | 98% | 96% | 95% | -45% | 1% | 103% | -54% | 65% | 101% | 99% | 99% | 79% | -97% | 79% | 58% | 92% | 101% | -42% | growth at 0.05 µM [21]: 96%; growth at 0.05 µM [22]: 91%; growth at 0.005 µM [23]: 93%; growth at 0.5 µM [24]: 74%; growth at 0.005 µM [25]: 97%; growth at 50 µM [26]: -7%; growth at 0.5 µM [27]: 102%; growth at 0.005 µM [28]: 92%; growth at 0.5 µM [29]: 73%; growth at 5 µM [30]: -9%; growth at 5 µM [31]: -9%; growth at 0.005 µM [32]: 95%; growth at 50 µM [33]: -54%; growth at 0.05 µM [34]: 95%; growth at 50 µM [35]: -35%; growth at 0.05 µM [36]: 97%; growth at 0.005 µM [37]: 96%
